US20030082722A1, “Method for amplifying expression from a cell specific promoter” (priority 2001, published 2003)
Read-outs that look alike come from different tables or passages of the source.

B1: TRAIL protein: recombinant soluble TRAIL protein (R & D Systems) (protein, UniProt P50591 39-281, looked up)
extracellular domain: TNELKQMQDKYSKSGIACFLKEDDSYWDPNDEESMNSPCWQVKWQLRQLVRKMILRTSEETISTVQEKQQNISPLVRERGPQRVAAHITGTRGRSNTLSSPNSKNEKALGRKINSWESSRSGHSFLSNLHLRNGELVIHEKGFYYIYSQTYFRFQEEIKENTKNDKQMVQYIYKYTSYPDPILLMKSARNSCWSKDAEYGLYSIYQGGIFELKENDRIFVSVTNEHLIDMDHEASFFGAFLVG
modifications: extracellular domain recombinant soluble

Assays:
MDA-MB-231 = assay: IC50 of chemotherapeutic agents and Ad/gTRAIL, parental cells; assay type: cell-based, human
Description: Cell Lines and Reagents. Human breast cancer cell lines MCF7, MDA-MB-231, MDA-MB-453, and MDA-MB-468 were grown in RPMI 1640 medium supplemented with 10% heat-inactivated fetal bovine serum, and antibiotics, and glutamine. Immortalized nontransformed breast epithelial cell lines MCF10A and MCF10F and normal human mammary epithelial cells (NHMEC) were purchased from Clonetics (San Diego, Calif.). Primary normal human mammary epithelial cells (PNHMEC) isolated from normal breast tissue (Stampfer and Yaswen, 1994) were provided by Dr. Yinhua Yu (The University of Texas M. D. Anderson Cancer Center). Doxorubicin-resistant MDA-MB-231 cells were obtained through the stepwise exposure of the parental cells to doxorubicin. […] The residual surviving cells were then allowed to grow in fresh medium. When these residual cells reached 70-80% confluence in the plate, they were treated again with the same concentration of doxorubicin. After this cycle was repeated several times, the concentration of doxorubicin was increased multiple times followed by the regrowth of cells. […] Other agents used in these experiments included gemcitabine (Eli Lilly and Co., Indianapolis, Ind.), vinorelbine (Pierre Fabre, Idron 64320, France), paclitaxel (Bristol-Myers Squibb Co., Princeton, N.J.), irinotecan (Pharmacia & Upjohn Co., Kalamazoo, Mich.), floxuridine (Ben Venue Labs, Inc., Bedford, Ohio), and TRAIL protein (R & D Systems, Minneapolis, Minn.).
Assays. Cell viability, flow cytometry, and Western blot analysis were performed as described in previous examples. See also Gu et al., 2000 and Kagawa et al., 2001. Biochemical analysis, using β-galactosidase was determined as dexcribed in Example 1. For Western analysis anti-caspase-8 (R&D systems, Minneapolis, Minn.), anti-caspase-3 (BD PharMingen, San Diego, Calif.), anti-PARP (BD PharMingen), anti-GFP (Clontech Inc., Palo Alto, Calif.), and anti-hTRAIL (Alexis, San Diego, Calif.) antibodies were used. Apoptosis in tumors was assessed by in situ TUNEL staining as decribed in Example 3.
Statistical Analysis. Differences among the treatment groups were assessed as described in previous examples. Survival was assessed using the Kaplan-Meier method. The drug concentration that inhibited cells growth by 50% (IC50) was calculated by CurveExpert 1.3 software (Starkville, Miss.).

231/ADR = assay: IC50 of chemotherapeutic agents and Ad/gTRAIL, doxorubicin-resistant cells; assay type: cell-based, human; settings: for IC50: Homo sapiens
Description: Cell Lines and Reagents. […] Immortalized nontransformed breast epithelial cell lines MCF10A and MCF10F and normal human mammary epithelial cells (NHMEC) were purchased from Clonetics (San Diego, Calif.). […] Doxorubicin-resistant MDA-MB-231 cells were obtained through the stepwise exposure of the parental cells to doxorubicin. […] The residual surviving cells were then allowed to grow in fresh medium. When these residual cells reached 70-80% confluence in the plate, they were treated again with the same concentration of doxorubicin. After this cycle was repeated several times, the concentration of doxorubicin was increased multiple times followed by the regrowth of cells.
Assays. Cell viability, flow cytometry, and Western blot analysis were performed as described in previous examples. […] For Western analysis anti-caspase-8 (R&D systems, Minneapolis, Minn.), anti-caspase-3 (BD PharMingen, San Diego, Calif.), anti-PARP (BD PharMingen), anti-GFP (Clontech Inc., Palo Alto, Calif.), and anti-hTRAIL (Alexis, San Diego, Calif.) antibodies were used.
Statistical Analysis. Differences among the treatment groups were assessed as described in previous examples. Survival was assessed using the Kaplan-Meier method.

DLD1/TRAIL-R = assay: Sensitizing TRAIL-resistant cells to Ad/gTRAIL by chemotherapeutic agents; settings: Ad/gTRAIL 1000 viral particles/cell; 96 h
Description: Chemotherapeutic agents concentrations are shown on the bottom of each graph. […] Cell viability was determined at 96 h after treatment. Levels are mean+/−SD of two quadruplet assays. […] Cells were treated with adenovector at 1000 moi (vp), 5-FU 50 μm and 1.25 μm MMC. In combination group, the dose were the same as the single agent group. Cells were harvested at 96 h after treatment and cell lysate was used for Western blot analysis.

[1] = system: lung metastasis derived from breast cancer cells 231/ADR; assay: Lung metastatic tumor model, aerosolized Ad/gTRAIL with paclitaxol; assay type: in vivo, nude mice; settings: day 35 after starting treatment
Description: The aerosol vector administration are the following: adenovirus of 1×10^12 particles was diluted in PBS to a final volume of Iml and was mixed with 500 μl (5 mg) of protamine. […] The complex was placed into the nebulizer chamber. The aerosol from the nebulizer was passed through a sealed plastic cage that housed the mice. The exposure required approximately 50 minutes, during which time the mice were allowed to move freely about the cage.

lung = assay: Reporter gene expression in lung after aerosolized vector; assay type: in vivo, mice; settings: protamine 1 mg/ml, hydrocortisone 250 ng/ml
Description: The aerosol vector administration are the following: adenovirus of 1×10^12 particles was diluted in PBS to a final volume of Iml and was mixed with 500 μl (5 mg) of protamine. The Protamine-adenovirus complex was mixed with 5 ml hydrocortisone (concentration of 250 ng/ml in H2O) after incubating 10 min at room temperature. The complex was placed into the nebulizer chamber. The aerosol from the nebulizer was passed through a sealed plastic cage that housed the mice. The exposure required approximately 50 minutes, during which time the mice were allowed to move freely about the cage.
Treatment of lung metastasis by aerosolized vector administration was also tested. […] Subsequent aerosol administration of adenovectors will contain protamine and hydrocortisone in the vector solution.

[2] = system: MDA-MB-231, MDA-MB-468, MDA-MB-453 and MCF7 cells; assay: Cell viability after recombinant TRAIL protein; assay type: cell-based, human
Description: Cell Lines and Reagents. Human breast cancer cell lines MCF7, MDA-MB-231, MDA-MB-453, and MDA-MB-468 were grown in RPMI 1640 medium supplemented with 10% heat-inactivated fetal bovine serum, and antibiotics, and glutamine. Immortalized nontransformed breast epithelial cell lines MCF10A and MCF10F and normal human mammary epithelial cells (NHMEC) were purchased from Clonetics (San Diego, Calif.). Primary normal human mammary epithelial cells (PNHMEC) isolated from normal breast tissue (Stampfer and Yaswen, 1994) were provided by Dr. Yinhua Yu (The University of Texas M. D. Anderson Cancer Center). Doxorubicin-resistant MDA-MB-231 cells were obtained through the stepwise exposure of the parental cells to doxorubicin. In brief, the parental MDA-MB-231 cells were treated with doxorubicin (Ben Venue Labs, Inc., Bedford, Ohio) at concentration of 2 μM (1.16 μg/ml, which is the IC80 of MDA-MB-231 cells). Most cells were killed after day 4 of treatment. The residual surviving cells were then allowed to grow in fresh medium. When these residual cells reached 70-80% confluence in the plate, they were treated again with the same concentration of doxorubicin. […]
To test whether these cells were similarly sensitive to soluble TRAIL protein, cells were treated with recombinant TRAIL protein at various concentrations up to 800 ng/ml. Cell viability was then determined at 24, 48, and 96 h after treatment. […]

[3] = Homo sapiens, MDA-MB-231, read-out: IC50

Description for H1299 lung cancer cells: Construction of Ad/gBax. […] This bicistronic vector as modified combined the two expression cassettes of the Tet-Off system (BD Clontech, San Francisco, Calif., USA) into a single vector (FIG. 28). […] The second cassette contained the cDNA of the GFP/Bax fusion protein under the control of a compound promoter consisting of TRE and the minimal immediate early promoter of CMV. GFP was included to facilitate the selection of recombinant virus and the detection of expression products.

Molecule | IC50 (MDA-MB-231; Homo sapiens, MDA-MB-231) [nM] | IC50 (231/ADR) [nM] | sensitization of DLD1/TRAIL-R to Ad/gTRAIL (cell viability) (DLD1/TRAIL-R) | also measured
COc1cccc2c1C(=O)c1c(O)c3c(c(O)c1C2=O)C[C@@](O)(C(=O)CO)C[C@@H]3O[C@H]1C[C@H](N)[C@H](O)[C@H](C)O1 [Doxorubicin, doxorubicin] | 1140 | 97600 | can sensitize DLD1/TRAIL-R to Ad/gTRAIL at certain concentrations | IC80 (MDA-MB-231; Homo sapiens, MDA-MB-231): 2000 nM; susceptibility to doxorubicin (MDA-MB-231; parental MDA-MB-231, 2 μM): susceptible; susceptibility to doxorubicin (231/ADR; 16 μM): resistant
O=c1[nH]c(=O)n([C@H]2C[C@H](O)[C@@H](CO)O2)cc1F [Floxuridine, floxuridine] | 100 | 4700 | can be sensitized to Ad/gTRAIL | –
Nc1ccn([C@@H]2O[C@H](CO)[C@@H](O)C2(F)F)c(=O)n1 [Gemcitabine, gemcitabine] | – | 37 | – | IC50 (MDA-MB-231; [3]): 18.6 nM
CCc1c2c(nc3ccc(OC(=O)N4CCC(N5CCCCC5)CC4)cc13)-c1cc3c(c(=O)n1C2)COC(=O)[C@]3(O)CC [Irinotecan, irinotecan] | 1540 | 5940 | – | –
CC(=O)O[C@H]1C(=O)[C@@]2(C)[C@H]([C@H](OC(=O)c3ccccc3)[C@]3(O)C[C@H](OC(=O)[C@H](O)[C@@H](NC(=O)c4ccccc4)c4ccccc4)C(C)=C1C3(C)C)[C@]1(OC(C)=O)CO[C@@H]1C[C@@H]2O [Paclitexol, paclitaxel] | 3.46 | 16.9 | – | numbers of tumor nodules in the lung [1]: dramatically reduced the numbers of tumor nodules
CN(C)[C@@H]1C(O)=C(C(N)=O)C(=O)[C@@]2(O)C(O)=C3C(=O)c4c(O)cccc4[C@@](C)(O)[C@H]3C[C@@H]12 [Tc, tetracycline] | – | – | – | concentration that started to inhibit GFP-Bax expression (H1299 lung cancer cells): 1 ng/mL
CCC1=C[C@@H]2CN(C1)Cc1c([nH]c3ccccc13)[C@@](C(=O)OC)(c1cc3c(cc1OC)N(C)[C@H]1[C@@](O)(C(=O)OC)[C@H](OC(C)=O)[C@]4(CC)C=CCN5CC[C@]31[C@@H]54)C2 [Vinorelbine, vinorelbine] | – | 22.9 | – | IC50 (MDA-MB-231; [3]): 2.4 nM
O=c1[nH]cc(F)c(=O)[nH]1 [fluorouracil] | – | – | can sensitize DLD1/TRAIL-R to Ad/gTRAIL at certain concentrations | –
C[C@]12CCC(=O)C=C1CC[C@@H]1[C@@H]2[C@@H](O)C[C@@]2(C)[C@H]1CC[C@]2(O)C(=O)CO [hydrocortisone] | – | – | – | reporter gene LacZ expression in lung (lung): dramatically increased
CO[C@@]12[C@H](COC(N)=O)C3=C(C(=O)C(C)=C(N)C3=O)N1C[C@@H]1N[C@@H]12 [mutamycin] | – | – | can sensitize DLD1/TRAIL-R to Ad/gTRAIL at certain concentrations | –
protamine | – | – | – | reporter gene LacZ expression in lung (lung): dramatically increased
B1 | – | – | – | sensitivity to TRAIL protein (cell viability) ([2]; MDA-MB-231 and MDA-MB-468, up to 800 ng/ml, 24, 48, 96 h): sensitive; sensitivity to TRAIL protein (cell viability) ([2]; MDA-MB-453 and MCF7, 800 ng/ml): resistant
